“Also recorded” adds a separate entry of the source.
Legend:
[1] = test system: ANBL-6; test: MTS assay (cell viability / metabolic activity); format: cell-based, human; conditions: ANBL-6, 3 days or 7 days
Protocol: (§1) Percent cell viability was determined using MTS solution (Promega, Madison, Wis.) by measuring absorbance at 490 nm using a Synergy HT Multi-Detection Microplate Reader (BioTek Instruments, Inc., Winooski, Vt.) with untreated cells being 100%. GraphPad Prism (GraphPad Software Inc., La Jolla, Calif.) was used to analyze data by non-linear regression with the log (inhibitor) vs. the response with a variable slope with the IC50 calculated. Data are expressed as a percentage of maximum metabolic activity. The experiments were performed in triplicate.
as §1, with “Metabolic activity” for “Percent cell viability”, “(Promega)” for “(Promega, Madison, Wis.)”, “Instruments Inc.)” for “Instruments, Inc., Winooski, Vt.)”, “Inc.)” for “Inc., La Jolla, Calif.)”, “versus” for “vs.”, “slope.” for “slope with the IC50 calculated.”

[2] = test system: MM1-144; test: MTS assay (cell viability / metabolic activity); format: cell-based, human; conditions: MM144 (MM1-144), 3 days
Protocol: as §1
as §1, with “Metabolic activity” for “Percent cell viability”, “(Promega)” for “(Promega, Madison, Wis.)”, “Instruments Inc.)” for “Instruments, Inc., Winooski, Vt.)”, “Inc.)” for “Inc., La Jolla, Calif.)”, “versus” for “vs.”, “slope.” for “slope with the IC50 calculated.”

[3] = test system: NCI-H929; test: MTS assay (cell viability / metabolic activity); format: cell-based, human; conditions: 3 days
Protocol: as §1
as §1, with “Metabolic activity” for “Percent cell viability”, “(Promega)” for “(Promega, Madison, Wis.)”, “Instruments Inc.)” for “Instruments, Inc., Winooski, Vt.)”, “Inc.)” for “Inc., La Jolla, Calif.)”, “versus” for “vs.”, “slope.” for “slope with the IC50 calculated.”

[4] = test system: OCI-My5; test: MTS assay (cell viability / metabolic activity); format: cell-based, human; conditions: OCI-My5, 3 days
Protocol: as §1
as §1, with “Metabolic activity” for “Percent cell viability”, “(Promega)” for “(Promega, Madison, Wis.)”, “Instruments Inc.)” for “Instruments, Inc., Winooski, Vt.)”, “Inc.)” for “Inc., La Jolla, Calif.)”, “versus” for “vs.”, “slope.” for “slope with the IC50 calculated.”

[5] = test system: U266; test: MTS assay (cell viability / metabolic activity); format: cell-based, human; conditions: U266, 3 days
Protocol: as §1
as §1, with “Metabolic activity” for “Percent cell viability”, “(Promega)” for “(Promega, Madison, Wis.)”, “Instruments Inc.)” for “Instruments, Inc., Winooski, Vt.)”, “Inc.)” for “Inc., La Jolla, Calif.)”, “versus” for “vs.”, “slope.” for “slope with the IC50 calculated.”

[6] = test system: ANBL-6; test: Senescence induced β-gal activity at pH 6 (C12FDG, flow cytometry); format: cell-based, human; conditions: ANBL-6, 1 nM, 3 days (data not shown)
Protocol: (§2) Senescence induced β-galactosidase (β-gal) activity was detected as described previously (Debacq-Chainiaux et al. (2009) Nature Protocols, 4: 1798-1806). […] To induce lysosomal alkalinization, cells were incubated in 100 nM bafilomycin A1 (Sigma) for 1 h. Then cells were incubated for 30 min with the β-gal substrate dodecanoylaminofluorescein di-β-D-galactopyranoside (C12FDG; Invitrogen), which becomes fluorescent after cleavage by β-gal. After washing twice with cold PBS, cells were resuspended in cold PBS containing 1 mM phenylethyl thiogalactoside (PETG), a β-gal inhibitor, and analyzed by flow cytometry for C12-fluorescein.
(§3) Intracellular β-galactosidase (β-gal) activity was measured as an indicator for replicative senescence. […] After treatment, cells were incubated with 100 nM bafilomycin A1 (Sigma) for 1 hour to induce lysosomal alkalinization. Then cells were incubated for 30 minutes with the 33 μM of β-gal substrate dodecanoylaminofluorescein di-β-D-galactopyranoside (C12FDG; Invitrogen), which becomes fluorescent after cleavage to C12-fluorescein. After washing twice with cold PBS, cells were resuspended in cold PBS containing 1 mM phenylethyl thiogalactoside (PETG), a β-gal inhibitor, and analyzed by flow cytometry for C12-fluorescein.

[7] = test system: OCI-My5; test: as above; format: cell-based, human; conditions: OCI-My5, 1 nM, 3 days (also 4, 6, 7 days)
Protocol: as §2, §3

[8] = test system: U266; test: as above; format: cell-based, human; conditions: U266, 1 nM, 3 days
Protocol: as §2, §3

[9] = test system: OCI-My 5 cells; test: Cell proliferation assay (3[H]-thymidine incorporation); format: cell-based, human; conditions: OCI-My 5, 0.3 pM-25 nM, 3 days
Protocol: The proliferative status of the cells was determined by measuring ^3[H]-thymidine incorporation.

[10] = test system: primary myeloma cells from patients; test: Treatment of primary myeloma cells from patients (trypan blue / MTT); format: cell-based, human; conditions: 25 nM, 72 h
Protocol: Trypan blue and MTT assays were used to determine the number of viable cells. The percentage of viable recovered cells was calculated based upon the number of viable cells recovered from DMSO-treated control cells, which was arbitrarily designated as 100%.
Percent viable cell recovery was determined by trypan blue staining, with untreated control cells designated as 100%.

[11] = test system: OCI-My 5 tumors; test: OCI-My5 xenograft model in SCID mice; format: in vivo, mouse; conditions: OCI-My5 s.c., 100 μg i.v. on days 14, 16, 18
Description: Eight mice were included in each group.
Each group consisted of eight mice.

[12] = test system: Daudi cells; test: Binding of anti-CD138 IgG to Daudi cells; design: species or system human; conditions: data not shown
[13] = test system: U266 tumors; test: U266 xenograft model in NSG mice; conditions: U266 s.c., 100 μg on days 14, 16, 18
Protocol: For U266 tumors, NOD scid IL-2 receptor gamma chain knock out (NSG) mice were injected subcutaneously with 1×10^7 U226 cells and treated on days 14, 16 and 18 with 100 μg of the indicated proteins. […] Survival was monitored as well as the size of the tumors.
For U266 tumors, experiments were carried out as described above except that NOD-scid IL2rγ^null (NSG) mice were used.

anti-CD138: Unfused human anti-CD138 IgG1 with VH and VL of antibody B-B4 [reference compound]
cell viability / growth inhibition (MTS assay), result in words [1]: no effect | cell viability / growth inhibition (MTS assay), result in words [2]: no effect | cell viability / growth inhibition (MTS assay), result in words [3]: no effect | cell viability / growth inhibition (MTS assay), result in words [4]: no effect | cell viability / growth inhibition (MTS assay), result in words [5]: no effect | β-gal activity at pH 6 (senescence), result in words [6]: no increases | β-gal activity at pH 6 (senescence), result in words [7]: little or no increase in β-gal activity | β-gal activity at pH 6 (senescence), result in words [8]: no increase under any conditions | proliferation (3[H]-thymidine incorporation), result in words [9]: did not decrease the ability of the cells to proliferate | viability of primary myeloma cells, result in words [10]: little effect | survival / protection, result in words [11]: increased survival slightly; also recorded: did not differ significantly from PBS treated mice | binding to Daudi cells [12]: did not bind to Daudi cells | survival / protection against tumor growth, result in words [13]: significant protection

Reference: patent US9803021B2 (The Regents of the University of California, priority 2012, dated 2017)
